Common to all, as to format: cell-based
One data set relates to human fibroblasts. In words: Type-1 collagen synthesis in human fibroblasts (PICP EIA kit). Particulars: 24 hours. How it is done: N-(1,3-dihydroxy propan-2-yl)-2-ethylhexanamide was added to a culture medium of human fibroblasts (DMEM medium, 10% fetal bovine serum, 1% antibiotics) to confirm the effect of accelerating type-1 collagen synthesis in a cell level. The measurement of the synthesized collagen was qualified using a procollagen type I C-peptide enzyme immunoassay kit (PICP EIA kit).
The human fibroblast culture medium was used to aliquot the human-derived fibroblasts (human fibroblasts) into 6 wells at 2×10^5 cell/well. After cell adhesion was confirmed, the culture medium was treated with 2 ml of N-(1,3-dihydroxy propan-2-yl)-2-ethylhexanamide as an effective component (anti-aging composition) per each well, at a concentration of 20 uM. After the culture medium was cultured in an incubator under a condition of 37° C. and 5% CO2 for 24 hours, type-1 collagen which is related to a wrinkle forming factor was measured in a cell extract. […]
The effect of accelerating type-1 collagen synthesis was confirmed in the same manner as in Example 1, except that the effective component was not used (a negative control). In addition, type-1 collagen synthesis ability relative to the negative control was calculated as a ratio, and illustrated as a rate of increase (see Table 1 and FIG. 1).

Data set [1] concerns Artificial skin (EpiDermFT). In words: Collagen synthesis in artificial skin, Masson's Trichrome staining. Particulars: 100 μl at 1% on artificial skin surface, 24 hours, versus PBS (Comparative Example 2). How it is done:
Artificial skin (EpiDermFT™ from MatTek, Ashland, USA) was purchased, and stabilized in an exclusive medium (EFT-400) for 18 hours. On the surface of the artificial skin, 100 μl of N-(1,3-dihydroxy propan-2-yl)-2-ethylhexanamide as an effective component (anti-aging composition) at a concentration of 1% was applied. After 24 hours, the artificial skin tissue was immobilized with 10% formaldehyde, embedded with paraffin, and sliced at 5 μm to obtain a sliced tissue which was used for confirming the effect of accelerating collagen synthesis (see FIG. 2).
The artificial skin was stabilized in the same manner as in Example 2, and coated with only 100 μl of PBS without an effective component. After 24 hours, the artificial skin tissue was immobilized with 10% formaldehyde, embedded with paraffin, and sliced at 5 μm to obtain a sliced tissue which was used for confirming the effect of accelerating collagen synthesis.

For data set [2], the system named is human-derived fibroblasts. In words: Toxicity / cell proliferation in human-derived fibroblasts. Particulars: 20 uM.

We go through one molecule from patent publication US11446223B2, “Anti-aging composition” (NEOPHARM CO., LTD., priority 2016, dated 2022).

`CCCCC(CC)C(=O)NC(CO)CO` (stereo not shown) [Example 1, N-(1,3-dihydroxypropan-2-yl)-2-ethylhexanamide]: the “Type-1 collagen concentration (20 uM)” value in the data set with human fibroblasts (20 uM compound, cell extract, human fibroblasts) came to 0.017. The “Rate of increase (%)” value in the data set with human fibroblasts (type-1 collagen relative to negative control (Comparative Example 1), 20 uM) was 242%. Moreover, the “effect of accelerating collagen synthesis (Masson's Trichrome staining)” value in data set [1] is “accelerated collagen synthesis much more”. Besides, the toxicity entry in data set [2] is reported as “not toxic”.
